Results as given in patent publication US5856336A, “Quinoline type mevalonolactones” (Nissan Chemical Industries Ltd., priority 1987, dated 1999).
Structures can show the parent of a compound that is named as a salt.

Tested on: cholesterol biosynthesis from acetate (liver microsome and sup fraction)
Assay: Test A: Inhibition of cholesterol biosynthesis from acetate in vitro
Assay type: biochemical, male Wistar rat
Details: for Relative activities by Test A: relative to CS-514 being evaluated to be 1
Description: Test A: Inhibition of cholesterol biosynthesis from acetate in vitro
Enzyme solution was prepared from liver of male Wistar rat billialy cannulated and discharged bile for over 24 hours. Liver was cut out at mid-dark and microsome and supernatant fraction which was precipitable with 40-80% of saturation of ammonium sulfate (sup fraction) were prepared from liver homogenate according to the modified method of Knauss et. al.; Kuroda, M., et. al., Biochim. Biophys. Acta, 489, 119 (1977). For assay of cholesterol biosynthesis, microsome (0.1 mg protein) and sup fraction (1.0 mg protein) were incubated for 2 hours at 37° C. in 200 μl of the reaction mixture containing ATP; 1 mM, Glutathione; 6 mM, Glucose-1-phosphate; 10 mM, NAD; 0.25 mM, NADP; 0.25 mM, CoA; 0.04 mM and 0.2 mM [2-^14 C]sodium acetate (0.2 μCi) with 4 μl of test compound solution dissolved in water or dimethyl sulfoxide. To stop reaction and saponify, 1 ml of 15% EtOH-KOH was added to the reactions and heated at 75° C. for 1 hour. […] Inhibitory activity of compounds was indicated with IC50.

| SMILES | Relative activities by Test A | IC50 (Test A, rat liver microsome + sup fraction, [2-14C]sodium acetate, 2 hours at 37° C., read-out: I50 (inhibitory activities by Test A)) |
| --- | --- | --- |
| CCOC(=O)CC(O)CC(O)/C=C/c1c(CC)nc2ccccc2c1-c1ccc(F)cc1 (stereo not drawn) [I-117] | 0.37 |  |
| CC(C)c1nc2c(Cl)cc(Cl)cc2c(-c2ccc(F)cc2)c1/C=C/C(O)CC(O)CC(=O)O (stereo not drawn) [I-522] | 0.76 |  |
| CC(C)c1nc2ccccc2c(-c2ccc(F)cc2)c1/C=C/C(O)CC(O)CC(=O)O (stereo not drawn) [I-51, Sodium salt of (E)-3,5-dihydroxy-7-[4'-(4"-fluorophenyl)-2'-(1"-methylethyl)-quinolin-3 '-yl]-hept-6-enoic acid] |  | 10 nM |
